Assay: Inhibition of Glycogen synthase kinase-3beta (GSK3-beta)

SMILES	IC50 [nM]
O=C1NC(=O)C2=C1c1cn(c3ncccc13)CCOCCOCCOCCOCCOCCn1cc2c2cccnc21 [17,20,23,26,29-pentaoxa-4,12,14,32,34-pentaazahexacyclo[30.6.1.17,14.02,6.08,13.033,38]tetraconta-1(39),2(6),7(40),8,10,12,33,35,37-nonaene-3,5-dione]	403
O=C1NC(=O)C2=C1c1cn(c3ccccc13)CCOCCOCCOCCOCCOCCn1cc2c2ccccc21 [17,20,23,26,29-pentaoxa-4,14,32-triazahexacyclo[30.6.1.17,14.02,6.08,13.033,38]tetraconta-1(39),2(6),7(40),8,10,12,33,35,37-nonaene-3,5-dione]	51
O=C1NC(=O)C2=C1c1cn(c3ncccc13)CCOCCOCCOCCOCCn1cc2c2cccnc21 [17,20,23,26-tetraoxa-4,12,14,29,31-pentaazahexacyclo[27.6.1.17,14.02,6.08,13.030,35]heptatriaconta-1(36),2(6),7(37),8,10,12,30,32,34-nonaene-3,5-dione]	48
O=C1NC(=O)C2=C1c1cn(c3ccccc13)CCOCCOCCOCCOCCn1cc2c2ccccc21 [17,20,23,26-tetraoxa-4,14,29-triazahexacyclo[27.6.1.17,14.02,6.08,13.030,35]heptatriaconta-1(36),2(6),7(37),8,10,12,30,32,34-nonaene-3,5-dione]	26
O=C1NC(=O)C2=C1c1cn(c3ncccc13)CCOCCOCCOCCn1cc2c2cccnc21 [17,20,23-trioxa-4,12,14,26,28-pentaazahexacyclo[24.6.1.17,14.02,6.08,13.027,32]tetratriaconta-1(33),2(6),7(34),8,10,12,27,29,31-nonaene-3,5-dione]	34
O=C1NC(=O)C2=C1c1cn(c3ncccc13)CCOCCOCCn1cc2c2cccnc21 [17,20-dioxa-4,12,14,23,25-pentaazahexacyclo[21.6.1.17,14.02,6.08,13.024,29]hentriaconta-1(30),2(6),7(31),8,10,12,24,26,28-nonaene-3,5-dione]	620
O=C1NC(=O)C2=C1c1cn(c3ccccc13)CCOCCOCCn1cc2c2cccnc21 [17,20-dioxa-4,12,14,23-tetraazahexacyclo[21.6.1.17,14.02,6.08,13.024,29]hentriaconta-1(30),2(6),7(31),8,10,12,24,26,28-nonaene-3,5-dione]	138
O=C1NC(=O)C2=C1c1cn(c3ccccc13)CCOCCOCCn1cc2c2ccccc21 [17,20-dioxa-4,14,23-triazahexacyclo[21.6.1.17,14.02,6.08,13.024,29]hentriaconta-1(30),2(6),7(31),8,10,12,24,26,28-nonaene-3,5-dione]	136

From BindingDB's records for doi:10.1021/jm030115o (Johnson and Johnson Pharmaceutical Research and Development, 2003)
